The test system of assay [1] is salivary glands. As to conditions: in vivo; cited from earlier work.
The subject of assay [2] is salivary glands (submandibular, parotid). On the set-up: species or system human. To be noted: in vivo.

In the case of botulinum toxin type A, the onset of action result in assay [1] is on record as “around six”. For the same substance, in assay [2], the “uptake of 18F-PSMA in the treated glands” value is reported as “significantly reduced”, the “uptake of 68Ga-PSMA in the glands treated with botulinum toxin” value is “significantly reduced”, the “uptake of 177Lu-PSMA in the treated glands” value is listed as “significantly reduced” and the “uptake of 225Ac-PSMA-617 in the treated glands” value is listed as “significantly reduced”.
